Results taken from EP4782445A1, “CDK KINASE INHIBITOR AND USE THEREOF” (Abbisko Therapeutics Co., Ltd., priority 2023, dated 2025).

Experiments:
CDK6/cyclin D3 = target: T1, CDK6/cyclin D3 (Homo sapiens, UniProt Q00534); test: In vitro biochemical kinase activity assay for CDK6/cyclin D3 (HTRF)
T1 construct: purchased Carna
Method in brief: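 HTRF assay: 0.02 nM CDK6/cyclin D3 incubated with 1 mM (or 100 µM) ATP and 0.3 µM Rb-biotin substrate at 30°C for 60 min in kinase buffer with 5 mM MgCl2 and 1 mM DTT.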

CDK4/cyclin D3 = target: T2, CDK4/cyclin D3 (Homo sapiens, UniProt P11802); test: In vitro biochemical kinase activity assay for CDK4/cyclin D3 (HTRF)
T2 construct: purchased Carna
T2 sequence (P11802 whole entry): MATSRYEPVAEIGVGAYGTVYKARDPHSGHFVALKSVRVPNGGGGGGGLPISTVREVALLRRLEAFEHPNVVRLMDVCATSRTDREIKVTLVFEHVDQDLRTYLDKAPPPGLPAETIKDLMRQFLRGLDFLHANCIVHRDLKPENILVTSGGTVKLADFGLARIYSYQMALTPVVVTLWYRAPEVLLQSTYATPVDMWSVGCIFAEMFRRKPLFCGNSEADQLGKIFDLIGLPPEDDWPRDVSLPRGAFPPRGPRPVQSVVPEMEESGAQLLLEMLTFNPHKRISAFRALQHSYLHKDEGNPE
T2 sequence (P30281 whole entry partner): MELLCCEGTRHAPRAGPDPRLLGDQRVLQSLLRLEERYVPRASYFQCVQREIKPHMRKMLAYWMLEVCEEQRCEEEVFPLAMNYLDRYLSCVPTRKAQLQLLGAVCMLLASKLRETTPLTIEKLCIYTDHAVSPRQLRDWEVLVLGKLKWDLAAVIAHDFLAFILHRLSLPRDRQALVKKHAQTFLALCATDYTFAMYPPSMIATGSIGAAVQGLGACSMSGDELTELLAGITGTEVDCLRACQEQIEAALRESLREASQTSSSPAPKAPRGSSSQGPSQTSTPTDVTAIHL
Method in brief: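 HTRF kinase reaction: 4.9 nM CDK4/cyclin D3, 1 mM (or 80 µM) ATP and 0.3 µM Rb-biotin substrate, 90 min at 30°C in buffer with 50 mM MgCl2 and 1 mM DTT.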

CDK2/cyclin E1 = target: T3, CDK2/cyclin E1 (Homo sapiens, UniProt P24941); test: In vitro biochemical kinase activity assay for CDK2/cyclin E1 (HTRF); settings: 1 µM ATP
T3 construct: purchased Carna
Method: I. In Vitro Biochemical Kinase Activity Assay for CDK2/Cyclin E1
The inhibitory effects of the compounds of the present invention on CDK2/cyclin E1 kinase activity were determined using a homogeneous time-resolved fluorescence (HTRF) assay. The experimental process was as follows: • 1. The kinase reaction was carried out in a 384-well plate. 15 nM CDK2/cyclin E1 kinase (Carna), 1 µM ATP, and 1 µM biotin-labeled substrate protein ATF2-biotin (Cisbio) were incubated at room temperature for 90 min in a buffer system composed of 10 mM MgCl2, 1 mM MnCl2, 1 mM DTT, and basal kinase buffer (Cisbio). • 2. The detection solution (Cisbio, containing reagents that specifically recognize phosphorylated ATF2 and ATF2-biotin proteins, respectively) was added. The plate was then sealed with a film (to protect from light and volatilization) and incubated at 25°C for 60 min. • 3. The plate was transferred to an Envision plate reader to detect fluorescence resonance energy transfer (FRET) signals. (The 665/615 ratio was calculated by reading the emission at 665 nm and 615 nM, respectively.) • 4. The IC50 values were determined by analyzing the inhibition at varying compound concentrations using Model 205 in the XLfit software.

[1] = unmarked data: 100 µM ATP in Step 1
[2] = unmarked data: 80 µM ATP in Step 1
[3] = data marked with *: 1 mM ATP in Step 1

T1 sequence (Q00534 whole entry): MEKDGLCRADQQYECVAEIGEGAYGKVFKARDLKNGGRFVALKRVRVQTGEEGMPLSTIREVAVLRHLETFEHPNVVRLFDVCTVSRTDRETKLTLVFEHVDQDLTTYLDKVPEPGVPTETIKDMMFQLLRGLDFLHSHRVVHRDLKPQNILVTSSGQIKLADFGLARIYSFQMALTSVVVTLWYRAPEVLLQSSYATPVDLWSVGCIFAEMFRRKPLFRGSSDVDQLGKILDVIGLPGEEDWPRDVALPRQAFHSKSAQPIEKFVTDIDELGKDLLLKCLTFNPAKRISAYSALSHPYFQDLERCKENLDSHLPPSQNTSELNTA
T1 sequence (P30281 whole entry partner): as the sequence (P30281 whole entry partner) above

Row | IC50 (CDK6/cyclin D3; [1]) [nM] | IC50 (CDK4/cyclin D3; [2]) [nM] | IC50 (CDK2/cyclin E1) [nM] | IC50 (CDK6/cyclin D3; [3]) [nM] | IC50 (CDK4/cyclin D3; [3]) [nM] | Structure (SMILES)
1 | – | – | 467 | – | – | CC(C)n1c(C#Cc2nc(N[C@H]3CCOC[C@@H]3O)ncc2Cl)cnc1C(C)(C)O [Example 3, (3R,4S)-4-((5-chloro-4-((2-(2-hydroxypropan-2-yl)-1-isopropyl-1H-imidazol-5-yl)ethynyl)pyrimidin-2-yl)amino)tetrahydro-2H-pyran-3-ol]
2 | 11.4 | 1.14 | 125 | – | – | CC(C)n1c(C#Cc2nc(N[C@@H]3CCOC[C@H]3O)ncc2Cl)cnc1[C@H](C)O [Example 30, (3 S,4R)-4-((5-chloro-4-((2-((S)-1-hydroxyethyl)-1-isopropyl-1H-imidazol-5-yl)ethynyl)pyrimidin-2-yl)amino)tetrahydro-2H-pyran-3-ol]
3 | 8.46 | 0.94 | 617 | – | – | CCN1CC2(C1)CN(c1ccc(Nc3ncc(F)c(C#Cc4cnn(C)c4C(C)C)n3)nc1)C2 [Example 61, N-(5-(6-ethyl-2,6-diazaspiro[3.3]heptan-2-yl)pyridin-2-yl)-5-fluoro-4-((5-isopropyl-1-methyl-1H-pyrazol-4-yl)ethynyl)pyrimidin-2-amine]
4 | 192 | 60.9 | 493 | – | – | CC(C)n1c(C#Cc2nc(N[C@@H]3COC[C@H]3O)ncc2Cl)cnc1C(C)(C)O [Example 53, (3 S,4R)-4-((5-chloro-4-((2-(2-hydroxypropan-2-yl)-1-isopropyl-1H-imidazol-5-yl)ethynyl)pyrimidin-2-yl)amino)tetrahydrofuran-3-ol]
5 | 24.2 | 6.22 | 2930 | – | – | CC(=O)c1ncc(C#Cc2nc(N[C@@H]3CCOC[C@H]3O)ncc2Cl)n1C(C)C [Example 52, 1-(5-((5-chloro-2-(((3 S,4R)-3-hydroxytetrahydro-2H-pyran-4-yl)amino)pyrimidin-4-yl)ethynyl)-1-isopropyl-1H-imidazol-2-yl)ethan-1-one]
6 | 47.1 | 7.85 | 590 | – | – | CC(C)n1c(C#Cc2nc(N[C@@H]3CCOC[C@H]3O)ncc2Cl)cnc1[C@@H](C)O [Example 31, (3 S,4R)-4-((5-chloro-4-((2-((R)-1-hydroxyethyl)-1-isopropyl-1H-imidazol-5-yl)ethynyl)pyrimidin-2-yl)amino)tetrahydro-2H-pyran-3-ol]
7 | 49 | 3.07 | 1370 | – | – | CC(C)c1c(C#Cc2nc(N[C@@H]3CCOC[C@H]3O)ncc2Cl)cnn1C [Example 56, (3 S,4R)-4-((5-chloro-4-((5-isopropyl-1-methyl-1H-pyrazol-4-yl)ethynyl)pyrimidin-2-yl)amino)tetrahydro-2H-pyran-3-ol]
8 | 4.86 | 0.36 | 129 | – | – | CCN1CC2(C1)CN(c1ccc(Nc3ncc(Cl)c(C#Cc4cnn(C)c4C(C)C)n3)nc1)C2 [Example 62, 5-chloro-N-(5-(6-ethyl-2,6-diazaspiro[3.3]heptan-2-yl)pyridin-2-yl)-4-((5-isopropyl-1-methyl-1H-pyrazol-4-yl)ethynyl)pyrimidin-2-amine]
9 | – | – | – | 254 | 53.3 | CC(C)c1c(C#Cc2nc(N[C@@H]3CCOC[C@H]3O)ncc2Cl)cnn1CC(F)F [Example 128, (3 S,4R)-4-((5-chloro-4-((1-(2,2-difluoroethyl)-5-isopropyl-1H-pyrazol-4-yl)ethynyl)pyrimidin-2-yl)amino)tetrahydro-2H-pyran-3-ol]

Further lines, the molecule ahead of its results:

Row | Structure (SMILES) | IC50 (CDK6/cyclin D3; [1]) [nM] | IC50 (CDK4/cyclin D3; [2]) [nM] | IC50 (CDK2/cyclin E1) [nM] | IC50 (CDK6/cyclin D3; [3]) [nM] | IC50 (CDK4/cyclin D3; [3]) [nM]
10 | CCN1CCN(Cc2ccc(Nc3ncc(Cl)c(C#Cc4cnc(C(C)(C)O)n4C(C)C)n3)nc2)CC1 [Example 41, 2-(5-((5-chloro-2-((5-((4-ethylpiperazin-1-yl)methyl)pyridin-2-yl)amino)pyrimidin-4-yl)ethynyl)-1-isopropyl-1H-imidazol-2-yl)propan-2-ol] | 11 | 1.83 | 1850 | – | –
11 | CC(C)n1c(C#Cc2nc(N[C@@H]3CCOC[C@H]3O)ncc2Cl)cnc1C(C)(C)O [Example 2, (3S,4R)-4-((5-chloro-4-((2-(2-hydroxypropan-2-yl)-1-isopropyl-1H-imidazol-5-yl)ethynyl)pyrimidin-2-yl)amino)tetrahydro-2H-pyran-3-ol] | – | – | 1320 | – | –
12 | CC(C)n1c(C#Cc2nc(Nc3ccc(C4CCN(C)CC4)cn3)ncc2Cl)cnc1C(C)(C)O [Example 55, 2-(5-((5-chloro-2-((5-(1-methylpiperidin-4-yl)pyridin-2-yl)amino)pyrimidin-4-yl)ethynyl)-1-isopropyl-1H-imidazol-2-yl)propan-2-ol] | 1.9 | 0.33 | 2120 | – | –
13 | CNCc1ncc(C#Cc2nc(N[C@@H]3CCOC[C@H]3O)ncc2Cl)n1C(C)C [Example 35, (3 S,4R)-4-((5-chloro-4-((1-isopropyl-2-((methylamino)methyl)-1H-imidazol-5-yl)ethynyl)pyrimidin-2-yl)amino)tetrahydro-2H-pyran-3-ol] | 131 | 19 | 539 | – | –
14 | CC(C)n1c(C#Cc2nc(N[C@@H]3CCN(S(C)(=O)=O)C[C@H]3O)ncc2Cl)cnc1C(C)(C)O [Example 24, (3R,4R)-4-((5-chloro-4-((2-(2-hydroxypropan-2-yl)-1-isopropyl-1H-imidazol-5-yl)ethynyl)pyrimidin-2-yl)amino)-1-(methanesulfonyl)piperidin-3-ol] | 3.04 | 0.56 | 236 | – | –
15 | CC(C)n1c(C#Cc2cc(N[C@@H]3CCOC[C@H]3O)ncc2Cl)cnc1CN1CCC[C@H](O)C1 [Example 109, (S)-1-((5-((5-chloro-2-(((3 S,4R)-3-hydroxytetrahydro-2H-pyran-4-yl)amino)pyridin-4-yl)ethynyl)-1-isopropyl-1H-imidazol-2-yl)methyl)piperidin-3-ol] | 223 | 4.5 | 3190 | – | –
16 | CC(C)n1c(C#Cc2nc(N[C@@H]3CCOC[C@H]3O)ncc2Cl)cnc1CN(C)C [Example 63, (3 S,4R)-4-((5-chloro-4-((2-((dimethylamino)methyl)-1-isopropyl-1H-imidazol-5-yl)ethynyl)pyrimidin-2-yl)amino)tetrahydro-2H-pyran-3-ol] | 130 | 23.8 | 693 | – | –
17 | CC(C)c1c(C#Cc2nc(Nc3ccc(C4CCN(C)CC4)cn3)ncc2Cl)cnn1C [Example 57, 5-chloro-4-((5-isopropyl-1-methyl-1H-pyrazol-4-yl)ethynyl)-N-(5-(1-methylpiperidin-4-yl)pyridin-2-yl)pyrimidin-2-amine] | 3.7 | 0.68 | 2830 | – | –
18 | CC(C)NCc1ncc(C#Cc2nc(N[C@@H]3CCOC[C@H]3O)ncc2Cl)n1C(C)C [Example 40, (3 S,4R)-4-((5-chloro-4-((1-isopropyl-2-((isopropylamino)methyl)-1H-imidazol-5-yl)ethynyl)pyrimidin-2-yl)amino)tetrahydro-2H-pyran-3-ol] | 299 | 30.8 | 1970 | – | –
19 | CC(=O)c1ncc(C#Cc2nc(N[C@@H]3CCOC[C@H]3O)ncc2Cl)n1C(C)C [Example 1, 1-(5-((5-chloro-2-(((3S,4R)-3-hydroxytetrahydro-2H-pyran-4-yl)amino)pyrimidin-4-yl)ethynyl)-1-isopropyl-1H-imidazol-2-yl)ethan-1-one] | 24.2 | 6.2 | 3630 | – | –
